Test results: US20240190880A1 (THE REGENTS OF THE UNIVERSITY OF MICHIGAN, priority 2021, published 2024)

Molecular target: T1, ER (Homo sapiens, UniProt P03372)
T1 construct: host or cells: T47D and MCF7 human breast cancer cells
T1 sequence (P03372 1-595): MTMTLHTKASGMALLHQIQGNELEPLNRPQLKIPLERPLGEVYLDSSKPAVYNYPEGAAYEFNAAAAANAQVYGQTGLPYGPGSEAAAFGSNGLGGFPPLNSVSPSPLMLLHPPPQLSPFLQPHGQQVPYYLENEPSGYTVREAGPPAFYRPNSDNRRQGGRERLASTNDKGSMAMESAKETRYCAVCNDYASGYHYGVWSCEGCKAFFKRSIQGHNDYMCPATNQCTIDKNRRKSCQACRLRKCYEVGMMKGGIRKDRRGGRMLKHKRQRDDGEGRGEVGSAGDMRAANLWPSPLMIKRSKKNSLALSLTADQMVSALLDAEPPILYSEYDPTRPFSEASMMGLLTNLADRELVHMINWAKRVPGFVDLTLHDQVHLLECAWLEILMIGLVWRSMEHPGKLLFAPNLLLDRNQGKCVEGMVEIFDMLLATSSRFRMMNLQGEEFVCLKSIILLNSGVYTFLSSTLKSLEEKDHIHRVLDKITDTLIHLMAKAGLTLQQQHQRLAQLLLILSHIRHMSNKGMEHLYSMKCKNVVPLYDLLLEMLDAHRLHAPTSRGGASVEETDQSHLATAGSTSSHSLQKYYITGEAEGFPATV
Test: ER degradation activity, in-cell western blot analysis in T47D cells
Type: cell-based
Details: 16 hours, Table A does not say which cell line (T47D or MCF7), read-out: Potency (DC50)
Summary of the method: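 Read-out is near-infrared fluorescence from an in-cell western, expressed as ER percentage relative to untreated and DMSO controls taken as 100%. T47D breast cancer cells received compound for 16 h in 0.5% DMSO.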

Row | DC50 [nM] | Structure (SMILES)
1 | > 100 | O=C1CCC(N2C(=O)c3cc4c(cc3C2=O)CCN(CC(=O)N2CC3(CCN(c5ccc([C@@H]6c7ccc(O)cc7CC[C@@H]6c6ccc(F)cc6)cc5)CC3)C2)CC4)C(=O)N1 (stereo partly drawn) [E 184, 2-(2,6-dioxopiperidin-3-yl)-7-(2-(7-(4-((1R,2S)-2-(4-fluorophenyl)-6-hydroxy-1,2,3,4-tetrahydronaphthalen-1-yl)phenyl)-2,7-diazaspiro[3.5]nonan-2-yl)-2-oxoethyl)-6,7,8,9-tetrahydroazepino[4,5-f]isoindole-1,3(2H,5H)-dione]
2 | 10 to 100 | O=C1CCC(N2C(=O)c3cc4c(cc3C2=O)CN(CC(=O)N2CCC3(CC2)CCN(c2ccc([C@@H]5c6ccc(O)cc6CC[C@@H]5c5ccc(F)cc5)cc2)C3)C4)C(=O)N1 (stereo partly drawn) [E 186, 2-(2,6-dioxopiperidin-3-yl)-6-(2-(2-(4-((1R,2S)-2-(4-fluorophenyl)-6-hydroxy-1,2,3,4-tetrahydronaphthalen-1-yl)phenyl)-2,8-diazaspiro[4.5]decan-8-yl)-2-oxoethyl)-6,7-dihydropyrrolo[3,4-f]isoindole-1,3(2H,5H)-dione]
3 | 10 to 100 | O=C1CCC(N2C(=O)c3cc4c(cc3C2=O)CN(CC(=O)N2CC3(CCN(c5ccc(C(=C(CCCl)c6ccccc6)c6ccc(O)cc6)cc5)CC3)C2)C4)C(=O)N1 (stereo not drawn) [E 187, 6-(2-(7-(4-(4-chloro-1-(4-hydroxyphenyl)-2-phenylbut-1-en-1-yl)phenyl)-2,7-diazaspiro[3.5]nonan-2-yl)-2-oxoethyl)-2-(2,6-dioxopiperidin-3-yl)-6,7-dihydropyrrolo[3,4-f]isoindole-1,3(2H,5H)-dione]
4 | 10 to 100 | CCC(=C(c1ccc(O)cc1)c1ccc(N2CCC3(CCN(C(=O)CN4Cc5cc6c(cc5C4)C(=O)N(C4CCC(=O)NC4=O)C6=O)CC3)CC2)cc1)c1ccccc1 (stereo not drawn) [E 188, 2-(2,6-dioxopiperidin-3-yl)-6-(2-(9-(4-(1-(4-hydroxyphenyl)-2-phenylbut-1-en-1-yl)phenyl)-3,9-diazaspiro[5.5]undecan-3-yl)-2-oxoethyl)-6,7-dihydropyrrolo[3,4-f]isoindole-1,3(2H,5H)-dione]
5 | 10 to 100 | CCC(=C(c1ccc(O)cc1)c1ccc(N2CCC3(CCN(C(=O)CN4Cc5cc6c(cc5C4)C(=O)N(C4CCC(=O)NC4=O)C6=O)CC3)C2)cc1)c1ccccc1 (stereo not drawn) [E 189, 2-(2,6-dioxopiperidin-3-yl)-6-(2-(2-(4-(1-(4-hydroxyphenyl)-2-phenylbut-1-en-1-yl)phenyl)-2,8-diazaspiro[4.5]decan-8-yl)-2-oxoethyl)-6,7-dihydropyrrolo[3,4-f]isoindole-1,3(2H,5H)-dione]
6 | 10 to 100 | O=C1CCC(N2C(=O)c3cc4c(cc3C2=O)CN(CC(=O)N2CCC3(CC2)CCN(c2ccc(C(=C(CCCl)c5ccccc5)c5ccc(O)cc5)cc2)C3)C4)C(=O)N1 (stereo not drawn) [E 190, 6-(2-(2-(4-(4-chloro-1-(4-hydroxyphenyl)-2-phenylbut-1-en-1-yl)phenyl)-2,8-diazaspiro[4.5]decan-8-yl)-2-oxoethyl)-2-(2,6-dioxopiperidin-3-yl)-6,7-dihydropyrrolo[3,4-f]isoindole-1,3(2H,5H)-dione]
7 | 10 to 100 | O=C1CCC(N2C(=O)c3cc4c(cc3C2=O)CN(C(=O)CN2CCC3(CC2)CCN(c2ccc(C(=C(CCCl)c5ccccc5)c5ccc(O)cc5)cc2)C3)C4)C(=O)N1 (stereo not drawn) [E 191, 6-(2-(2-(4-(4-chloro-1-(4-hydroxyphenyl)-2-phenylbut-1-en-1-yl)phenyl)-2,8-diazaspiro[4.5]decan-8-yl)acetyl)-2-(2,6-dioxopiperidin-3-yl)-6,7-dihydropyrrolo[3,4-f]isoindole-1,3(2H,5H)-dione]
8 | 10 to 100 | CCC(=C(c1ccc(O)cc1)c1ccc(N2CCC3(CCN(CC(=O)N4Cc5cc6c(cc5C4)C(=O)N(C4CCC(=O)NC4=O)C6=O)CC3)C2)cc1)c1ccccc1 (stereo not drawn) [E 192, 2-(2,6-dioxopiperidin-3-yl)-6-(2-(2-(4-(1-(4-hydroxyphenyl)-2-phenylbut-1-en-1-yl)phenyl)-2,8-diazaspiro[4.5]decan-8-yl)acetyl)-6,7-dihydropyrrolo[3,4-f]isoindole-1,3(2H,5H)-dione]
9 | 10 to 100 | O=C1CCC(N2C(=O)c3cc4c(cc3C2=O)CN(CC(=O)N2CCC3(CC2)CCN(c2ccc(C(=C(CCCl)c5ccc(F)cc5)c5ccc(O)cc5)cc2)CC3)CC4)C(=O)N1 (stereo not drawn) [E 193]
10 | 10 to 100 | CCC(=C(c1ccc(O)cc1)c1ccc(N2CCC3(CC2)CN(C(=O)CN2CCc4cc5c(cc4C2)C(=O)N(C2CCC(=O)NC2=O)C5=O)C3)cc1)c1ccccc1 (stereo not drawn) [E 194, 2-(2,6-dioxopiperidin-3-yl)-6-(2-(7-(4-(1-(4-hydroxyphenyl)-2-phenylbut-1-en-1-yl)phenyl)-2,7-diazaspiro[3.5]nonan-2-yl)-2-oxoethyl)-5,6,7,8-tetrahydro-1H-pyrrolo[3,4-g]isoquinoline-1,3(2H)-dione]
11 | 10 to 100 | O=C1CCC(N2C(=O)c3cc4c(cc3C2=O)CN(C(=O)CN2CCC3(CC2)CCN(c2ccc(C(=C(CCCl)c5ccccc5)c5ccc(O)cc5)cc2)CC3)C4)C(=O)N1 (stereo not drawn) [E 195, 6-(2-(9-(4-(4-chloro-1-(4-hydroxyphenyl)-2-phenylbut-1-en-1-yl)phenyl)-3,9-diazaspiro[5.5]undecan-3-yl)acetyl)-2-(2,6-dioxopiperidin-3-yl)-6,7-dihydropyrrolo[3,4-f]isoindole-1,3(2H,5H)-dione]
12 | 10 to 100 | O=C1CCC(N2C(=O)c3cc4c(cc3C2=O)CN(CC(=O)N2CCC3(CC2)CCN(c2ccc(C(=C(CCCl)c5ccc(F)cc5)c5ccc(O)cc5)cc2)CC3)C4)C(=O)N1 (stereo not drawn) [E 196, 6-(2-(9-(4-(4-chloro-2-(4-fluorophenyl)-1-(4-hydroxyphenyl)but-1-en-1-yl)phenyl)-3,9-diazaspiro[5.5]undecan-3-yl)-2-oxoethyl)-2-(2,6-dioxopiperidin-3-yl)-6,7-dihydropyrrolo[3,4-f]isoindole-1,3(2H,5H)-dione]
13 | 10 to 100 | O=C1CCC(N2C(=O)c3cc4c(cc3C2=O)CN(CC(=O)N2CCC3(CC2)CCN(c2ccc(C(=C(CCCl)c5ccccc5)c5ccc(B(O)O)cc5)cc2)CC3)C4)C(=O)N1 (stereo not drawn) [E 197, (4-(4-chloro-1-(4-(9-(2-(6-(2,6-dioxopiperidin-3-yl)-5,7-dioxo-3,5,6,7-tetrahydropyrrolo[3,4-f]isoindol-2(1H)-yl)acetyl)-3,9-diazaspiro[5.5]undecan-3-yl)phenyl)-2-phenylbut-1-en-1-yl)phenyl)boronic acid]
14 | 10 to 100 | O=C1CCC(N2C(=O)c3cc4c(cc3C2=O)CN(C(=O)CN2CCC3(CC2)CCN(c2ccc(C(=C(CCCl)c5ccccc5)c5ccc(B(O)O)cc5)cc2)CC3)C4)C(=O)N1 (stereo not drawn) [E 198, (4-(4-chloro-1-(4-(9-(2-(6-(2,6-dioxopiperidin-3-yl)-5,7-dioxo-3,5,6,7-tetrahydropyrrolo[3,4-f]isoindol-2(1H)-yl)-2-oxoethyl)-3,9-diazaspiro[5.5]undecan-3-yl)phenyl)-2-phenylbut-1-en-1-yl)phenyl)boronic acid]
15 | > 100 | O=C1CCC(N2C(=O)c3cc4c(cc3C2=O)CN(CC2(F)CCN(C(=O)C3CN(c5ccc([C@@H]6c7ccc(O)cc7CC[C@@H]6c6ccccc6)cc5)C3)CC2)C4)C(=O)N1 (stereo partly drawn) [E 199, 2-(2,6-dioxopiperidin-3-yl)-6-((4-fluoro-1-(1-(4-((1R,2S)-6-hydroxy-2-phenyl-1,2,3,4-tetrahydronaphthalen-1-yl)phenyl)azetidine-3-carbonyl)piperidin-4-yl)methyl)-6,7-dihydropyrrolo[3,4-f]isoindole-1,3(2H,5H)-dione]
16 | > 100 | O=C1CCC(N2C(=O)c3cc4c(cc3C2=O)CN(CC2CN(C(=O)C3CN(c5ccc([C@@H]6c7ccc(O)cc7CC[C@@H]6c6ccccc6)cc5)C3)C2)C4)C(=O)N1 (stereo partly drawn) [E 200, 2-(2,6-dioxopiperidin-3-yl)-6-((1-(1-(4-((1R,2S)-6-hydroxy-2-phenyl-1,2,3,4-tetrahydronaphthalen-1-yl)phenyl)azetidine-3-carbonyl)azetidin-3-yl)methyl)-6,7-dihydropyrrolo[3,4-f]isoindole-1,3(2H,5H)-dione]
17 | > 100 | O=C1CCC(N2C(=O)c3cc4c(cc3C2=O)CN(CC2CCN(C(=O)C3CN(c5ccc([C@@H]6c7ccc(O)cc7CC[C@@H]6c6ccccc6)cc5)C3)CC2)C4)C(=O)N1 (stereo partly drawn) [E 201, 2-(2,6-dioxopiperidin-3-yl)-6-((1-(1-(4-((1R,2S)-6-hydroxy-2-phenyl-1,2,3,4-tetrahydronaphthalen-1-yl)phenyl)azetidine-3-carbonyl)piperidin-4-yl)methyl)-6,7-dihydropyrrolo[3,4-f]isoindole-1,3(2H,5H)-dione]
18 | > 100 | O=C1CCC(N2C(=O)c3cc4c(cc3C2=O)CN(CC2(F)CCN(C(=O)C3(F)CN(c5ccc([C@@H]6c7ccc(O)cc7CC[C@@H]6c6ccccc6)cc5)C3)CC2)C4)C(=O)N1 (stereo partly drawn) [E 202, 2-(2,6-dioxopiperidin-3-yl)-6-((4-fluoro-1-(3-fluoro-1-(4-((1R,2S)-6-hydroxy-2-phenyl-1,2,3,4-tetrahydronaphthalen-1-yl)phenyl)azetidine-3-carbonyl)piperidin-4-yl)methyl)-6,7-dihydropyrrolo[3,4-f]isoindole-1,3(2H,5H)-dione]
